For 27 molecules, Ki results are on record in patent US12479830B2, “Homopiperazinyl and homopiperidinyl quinazolin-4(3H)-one derivatives having multimodal activity against pain” (ESTEVE PHARMACEUTICALS, S.A., priority 2019, dated 2025).

Assay [1] addresses Human α2δ-1 subunit of Cav2.2 calcium channel (Homo sapiens, UniProt P54289). The assay can be described thus: Human α2δ-1 subunit of Cav2.2 calcium channel assay ([3H]-gabapentin binding). Particulars: binding to the α2δ-1 subunit of voltage-gated calcium channels, expressed as Ki class; + also covers inhibition between 1% and 50%. As for the experimental part:
Human α2δ-1 Subunit of Cav2.2 Calcium Channel Assay
Human α2δ-1 enriched membranes (2.5 μg) were incubated with 15 nM of radiolabeled [^3H]-Gabapentin in assay buffer containing Hepes-KOH 10 mM. pH 7.4. NSB (non specific binding) was measured by adding 10 μM pregabalin. The binding of the test compound was measured at either one concentration (% inhibition at 1 or 10 μM) or five different concentrations to determine affinity values (Ki). After 60 min incubation at 27° C., binding reaction was terminated by filtering through Multiscreen GF/C (Millipore) presoaked in 0.5% polyethyleneimine in Vacuum Manifold Station, followed by 3 washes with ice-cold filtration buffer containing 50 mM Tris-HCl, pH 7.4. Filter plates were dried at 60° C. for 1 h and 30 μL of scintillation cocktail were added to each well before radioactivity reading. Readings were performed in a Trilux 1450 Microbeta radioactive counter (Perkin Elmer).

The target of another assay is T1, Human σ1 receptor (Homo sapiens, UniProt Q99720).
T1 construct: expressed in transfected cells; host or cells: HEK-293
Put plainly: Human σ1 receptor radioligand assay ([3H](+)-pentazocine binding). Particulars: binding to the σ1 receptor, expressed as Ki class; + also covers inhibition between 1% and 50%. The protocol: Human σ1 Receptor Radioligand Assay
Transfected HEK-293 membranes (7 μg) were incubated with 5 nM of [^3H](+)-pentazocine in assay buffer containing Tris-HCl 50 mM at pH 8. NBS (non-specific binding) was measured by adding 10 μM haloperidol. The binding of the test compound was measured at either one concentration (% inhibition at 1 or 10 μM) or five different concentrations to determine affinity values (Ki). Plates were incubated at 37° C. for 120 minutes. After the incubation period, the reaction mix was then transferred to MultiScreen HTS, FC plates (Millipore), filtered and plates were washed 3 times with ice-cold 10 mM Tris-HCL (pH7.4). Filters were dried and counted at approximately 40% efficiency in a MicroBeta scintillation counter (Perkin-Elmer) using EcoScint liquid scintillation cocktail.

Molecules are shown by their SMILES. pKi: −log10 of the molar value.

Human α2δ-1 subunit of Cav2.2 calcium channel, sequence (P54289 25-1103): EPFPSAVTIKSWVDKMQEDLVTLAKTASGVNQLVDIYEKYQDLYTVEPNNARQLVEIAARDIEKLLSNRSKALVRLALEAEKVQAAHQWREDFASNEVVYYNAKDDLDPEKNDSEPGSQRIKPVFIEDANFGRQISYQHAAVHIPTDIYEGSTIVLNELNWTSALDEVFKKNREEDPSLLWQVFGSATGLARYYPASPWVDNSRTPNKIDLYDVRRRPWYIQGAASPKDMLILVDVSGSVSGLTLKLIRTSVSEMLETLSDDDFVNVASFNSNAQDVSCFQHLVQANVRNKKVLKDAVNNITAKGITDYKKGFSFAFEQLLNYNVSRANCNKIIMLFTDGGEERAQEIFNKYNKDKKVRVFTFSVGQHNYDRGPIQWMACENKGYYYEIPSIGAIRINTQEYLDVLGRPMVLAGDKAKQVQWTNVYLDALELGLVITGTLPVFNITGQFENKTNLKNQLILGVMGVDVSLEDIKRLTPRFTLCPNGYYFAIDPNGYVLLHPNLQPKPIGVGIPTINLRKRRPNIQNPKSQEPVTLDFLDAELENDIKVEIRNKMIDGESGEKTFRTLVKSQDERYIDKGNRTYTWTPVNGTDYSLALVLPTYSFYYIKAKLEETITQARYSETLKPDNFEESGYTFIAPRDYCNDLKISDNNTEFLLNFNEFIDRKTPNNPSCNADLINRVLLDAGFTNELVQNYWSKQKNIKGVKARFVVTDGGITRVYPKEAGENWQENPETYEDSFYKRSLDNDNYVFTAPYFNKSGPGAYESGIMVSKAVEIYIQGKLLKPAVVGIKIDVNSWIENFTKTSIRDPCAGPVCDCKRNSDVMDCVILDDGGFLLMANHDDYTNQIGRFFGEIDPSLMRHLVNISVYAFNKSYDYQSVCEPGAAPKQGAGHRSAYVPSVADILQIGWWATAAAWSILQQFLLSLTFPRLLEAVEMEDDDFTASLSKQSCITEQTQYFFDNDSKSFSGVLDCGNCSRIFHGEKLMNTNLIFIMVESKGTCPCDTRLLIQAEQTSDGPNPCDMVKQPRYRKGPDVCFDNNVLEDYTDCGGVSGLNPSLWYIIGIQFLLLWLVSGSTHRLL
T1 sequence (Q99720 whole entry): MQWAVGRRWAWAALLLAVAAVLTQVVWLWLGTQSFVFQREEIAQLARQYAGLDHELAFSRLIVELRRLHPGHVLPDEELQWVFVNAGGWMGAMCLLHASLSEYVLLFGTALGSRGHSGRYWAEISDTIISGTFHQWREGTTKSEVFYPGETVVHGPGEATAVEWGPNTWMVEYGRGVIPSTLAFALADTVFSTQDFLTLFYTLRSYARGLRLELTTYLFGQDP

As to `CCCC(c1nc2ncc(F)cc2c(=O)n1CC1CC1)N1CCN[C@@H](C)CC1` (single isomer, unassigned) [Example 194], the pKi was less than 5.30 in assay [1] and less than 6.00 at Human σ1 receptor.
The corresponding values for `CCCC(c1nc2ccc(Br)cc2c(=O)n1CC)N1CCCN(C)CC1` (centres unmarked) [Example 1, 6-Bromo-3-ethyl-2-(1-(4-methyl-1,4-diazepan-1-yl)butyl)quinazolin-4(3H)-one] are more than 6.30 and more than 6.30.
The matching figures for `CCCC(c1nc2ccc(Br)cc2c(=O)n1CC)N1CCCNCC1` (centres unmarked) [Example 2, 2-(1-(1,4-diazepan-1-yl)butyl)-6-bromo-3-ethylquinazolin-4(3H)-one]: more than 6.30 and less than 6.00.
The matching figures for `CCCC(c1nc2cc(Br)ccc2c(=O)n1CC)N1CCCN(C)CC1` (centres unmarked) [Example 3, 7-bromo-3-ethyl-2-(1-(4-methyl-1,4-diazepan-1-yl)butyl)quinazolin-4(3H)-one]: more than 6.30 and less than 6.00.
Take `CCCC(c1nc2cc(Br)ccc2c(=O)n1CC)N1CCCNCC1` (centres unmarked) [Example 4, 2-(1-(1,4-diazepan-1-yl)butyl)-7-bromo-3-ethylquinazolin-4(3H)-one]: the pKi in assay [1] was more than 6.30; at Human σ1 receptor it was less than 6.00.
The matching figures for `CCCC(c1nc2ccc(Br)cc2c(=O)n1CC)N1CCCN(CCc2ccccc2)CC1` (centres unmarked) [Example 5, 6-bromo-3-ethyl-2-(1-(4-phenethyl-1,4-diazepan-1-yl)butyl)quinazolin-4(3H)-one]: 5.30 to 6.30 and more than 6.30.
The corresponding values for `CCCC(c1nc2ccc(Br)cc2c(=O)n1CC)N1CCCN(Cc2ccccc2)CC1` (centres unmarked) [Example 6, 2-(1-(4-benzyl-1,4-diazepan-1-yl)butyl)-6-bromo-3-ethylquinazolin-4(3H)-one] are less than 5.30 and more than 6.30.
The matching figures for `CCCC(c1nc2ccc(Br)cc2c(=O)n1CC)N1CCCN(CC)CC1` (centres unmarked) [Example 7, 6-bromo-3-ethyl-2-(1-(4-ethyl-1,4-diazepan-1-yl)butyl)quinazolin-4(3H)-one]: more than 6.30 and more than 6.30.
`CCCC(c1nc2ccc(C)cc2c(=O)n1CC)N1CCCN(C)CC1` (centres unmarked) [Example 8, 3-ethyl-6-methyl-2-(1-(4-methyl-1,4-diazepan-1-yl)butyl)quinazolin-4(3H)-one]: the negative-log Ki (pKi) is more than 6.30 in assay [1] and less than 6.00 at Human σ1 receptor.
The matching figures for `CCCC(c1nc2cc(C#N)ccc2c(=O)n1CC)N1CCCN(C)CC1` (centres unmarked) [Example 9, 3-ethyl-2-(1-(4-methyl-1,4-diazepan-1-yl)butyl)-4-oxo-3,4-dihydroquinazoline-7-carbonitrile]: more than 6.30 and less than 6.00.
The corresponding values for `CCCC(c1nc2ccc(C#N)cc2c(=O)n1CC)N1CCCN(C)CC1` (centres unmarked) [Example 10, 3-ethyl-2-(1-(4-methyl-1,4-diazepan-1-yl)butyl)-4-oxo-3,4-dihydroquinazoline-6-carbonitrile] are more than 6.30 and less than 6.00.
The corresponding values for `CCCC(c1nc2cc(C)ccc2c(=O)n1CC)N1CCCN(C)CC1` (centres unmarked) [Example 11, 3-ethyl-7-methyl-2-(1-(4-methyl-1,4-diazepan-1-yl)butyl)quinazolin-4(3H)-one] are more than 6.30 and less than 6.00.
Turning to `CCCC(c1nc2ccc(I)cc2c(=O)n1CC)N1CCCN(C)CC1` (centres unmarked) [Example 12, 3-ethyl-6-iodo-2-(1-(4-methyl-1,4-diazepan-1-yl)butyl)quinazolin-4(3H)-one], the negative-log Ki (pKi) (in assay [1]; at Human σ1 receptor) was more than 6.30 throughout.
With `CCCC(c1nc2cc(F)c(Br)cc2c(=O)n1CC)N1CCCN(C)CC1` (centres unmarked) [Example 13, 6-bromo-3-ethyl-7-fluoro-2-(1-(4-methyl-1,4-diazepan-1-yl)butyl)quinazolin-4(3H)-one], the pKi (in assay [1]; on Human σ1 receptor) was more than 6.30 in each case.
For the molecule `CCCC(c1nc2ccc(Br)cc2c(=O)n1CCOC)N1CCCN(C)CC1` (centres unmarked) [Example 14, 6-bromo-3-(2-methoxyethyl)-2-(1-(4-methyl-1,4-diazepan-1-yl)butyl)quinazolin-4(3H)-one], the pKi in assay [1] was 5.30 to 6.30; on Human σ1 receptor, less than 6.00.
Turning to `CCC[C@H](c1nc2ccc(OC)cc2c(=O)n1CC)N1CCCN(C)CC1` [Example 15, (R)-3-ethyl-6-methoxy-2-(1-(4-methyl-1,4-diazepan-1-yl)butyl)quinazolin-4(3H)-one], the pKi was more than 6.30 in assay [1] and less than 6.00 at Human σ1 receptor.
The corresponding values for `CCC[C@@H](c1nc2ccc(OC)cc2c(=O)n1CC)N1CCCN(C)CC1` [Example 16, (S)-3-ethyl-6-methoxy-2-(1-(4-methyl-1,4-diazepan-1-yl)butyl)quinazolin-4(3H)-one] are less than 5.30 and less than 6.00.
The matching figures for `CCCC(c1nc2cnccc2c(=O)n1CC)N1CCCN(C)CC1` (centres unmarked) [Example 17, 3-ethyl-2-(1-(4-methyl-1,4-diazepan-1-yl)butyl)pyrido[3,4-d]pyrimidin-4(3H)-one]: more than 6.30 and less than 6.00.
`CCCC(c1nc2ccc(Br)cc2c(=O)n1CCC)N1CCCN(C)CC1` (centres unmarked) [Example 18, 6-bromo-2-(1-(4-methyl-1,4-diazepan-1-yl)butyl)-3-propylquinazolin-4(3H)-one]: the negative logarithm of the Ki (pKi) (in assay [1]; at Human σ1 receptor) was more than 6.30 each time.
With `CCCC(c1nc2ccc(Cl)cc2c(=O)n1CC)N1CCCN(C)CC1` (centres unmarked) [Example 19, 6-chloro-3-ethyl-2-(1-(4-methyl-1,4-diazepan-1-yl)butyl)quinazolin-4(3H)-one], the pKi was more than 6.30 in assay [1] and 6.00 to 6.30 on Human σ1 receptor.
The matching figures for `CCCC(c1nc2ccc(Br)cc2c(=O)n1CCC)N1CCCN(CC)CC1` (centres unmarked) [Example 20, 6-bromo-2-(1-(4-ethyl-1,4-diazepan-1-yl)butyl)-3-propylquinazolin-4(3H)-one]: more than 6.30 and more than 6.30.
The corresponding values for `CCCC(c1nc2ccc(F)cc2c(=O)n1CC)N1CCCN(C)CC1` (centres unmarked) [Example 21, 3-ethyl-6-fluoro-2-(1-(4-methyl-1,4-diazepan-1-yl)butyl)quinazolin-4(3H)-one] are more than 6.30 and more than 6.30.
The matching figures for `CCCC(c1nc2ccc(Cl)cc2c(=O)n1CC)N1CCCNCC1` (centres unmarked) [Example 22, 2-(1-(1,4-diazepan-1-yl)butyl)-6-chloro-3-ethylquinazolin-4(3H)-one]: more than 6.30 and less than 6.00.
Turning to `CCCC(c1nc2ccc(Cl)cc2c(=O)n1CCC)N1CCCN(C)CC1` (centres unmarked) [Example 23, 6-chloro-2-(1-(4-methyl-1,4-diazepan-1-yl)butyl)-3-propylquinazolin-4(3H)-one], the negative logarithm of the Ki (pKi) in assay [1] is more than 6.30; at Human σ1 receptor, 6.00 to 6.30.
The corresponding values for `CCCC(c1nc2ccc(Br)c(C)c2c(=O)n1CC)N1CCCN(C)CC1` (centres unmarked) [Example 24, 6-bromo-3-ethyl-5-methyl-2-(1-(4-methyl-1,4-diazepan-1-yl)butyl)quinazolin-4(3H)-one] are 5.30 to 6.30 and more than 6.30.
The matching figures for `CCCC(c1nc2c(C)cc(Br)cc2c(=O)n1CC)N1CCCN(C)CC1` (centres unmarked) [Example 25, 6-bromo-3-ethyl-8-methyl-2-(1-(4-methyl-1,4-diazepan-1-yl)butyl)quinazolin-4(3H)-one]: less than 5.30 and 6.00 to 6.30.
Regarding `CCCC(c1nc2ccc(Br)c(F)c2c(=O)n1CC)N1CCCN(C)CC1` (centres unmarked) [Example 51, 6-bromo-3-ethyl-5-fluoro-2-(1-(4-methyl-1,4-diazepan-1-yl)butyl)quinazolin-4(3H)-one], the pKi on Human σ1 receptor is more than 6.30.
